Test results taken from US20160310619A1, “SCREENING METHODS FOR ACETYLCHOLINE RELATED BIOACTIVE MATERIALS USING INHERITED COLOR PREFERENCE OF FISH” (GENOMIC DESIGN BIOENGINEERING COMPANY, priority 2014, published 2016).

Key:
zebrafish [1] = assay: Color preference of zebrafish in blue/yellow color maze after alcohol; assay type: in vivo, zebrafish (Danio rerio); settings: zebrafish 25 days after birth; alcohol 0.5%, 1%, 2% in egg water vs 0% comparison group; FIG. 7
Source text: A method for detecting bioactive materials using the innate color preference instinct of fish based on the color recognition and color preference results according to the visual recognition of zebrafish was developed. In order to identify whether a method for screening a bioactive material according to the present invention may effectively detect candidate materials, alcohol was used as an example of the bioactive material to identify whether the color preference of zebrafish is changed between before applied to zebrafish and after applied to the zebrafish. This utilizes the common sense that humans' recognition ability is changed depending on the blood alcohol concentration.
A specific experimental method was as follows. A straight line-shaped screening device (color maze) with a combination of blue and yellow was prepared, and 40 zebrafish, 25 days after birth, were used. Every 10 of the fish were put in each straight-line groove, egg water of 5 ml was used, and then, video-recording was performed for 30 minutes using a video recorder. As predicted, many of the zebrafish moved to blue that is a preferred color of zebrafish. […] The number of zebrafish in each color section was counted through the video recorded over five times in total.

zebrafish [2] = assay: Screening for acetylcholine neurotransmission-related materials by innate color preference (blue/yellow color maze); assay type: in vivo, zebrafish (Danio rerio); settings: acetylcholinesterase inhibitors vs egg water; five days old fish; FIG. 9(A)-(C)
Source text: For this experiment, a straight line-shaped screening device (color maze) was used as a screening device, and blue and yellow that most differ in color preference were used. Further, five days old young fish born from the same male and female were used in the channels of the device and divided into a comparison group and an experimental group in this experiment. The number of entities used in the comparison group and the experimental group was 10 per channel. The final volume of egg water used in each channel was fitted into 4 mL. Considering the direction for illumination and time of transmission of drug to nerves, video-recording was performed for 30 minutes, and then, sleeves were changed. Then, video-recording was resumed for 30 minutes. The number of entities in each of the sections with different colors was counted every two minutes and was processed statistically. As statistics, the significance of the comparison group and the experimental group was identified through the T-test (SPSS, USA).
For acetylcholine (Sigma), tacrine (Sigma), galantamine (Sigma), and caffeine (Sigma) as reagents administered to the experimental group, concentrates including acetylcholine of 1000 mM, tacrine of 20 mM, and galantamine of 10 mM were prepared using third distilled water. 10 entities, five days after fertilization, were put in the channel of each color maze, and egg water of 4 mL was used. […]

| Structure (SMILES) | ability of distinguishing colors (number of zebrafish in each color section) (zebrafish [1]) | change in color preference (number of young zebrafish in blue and yellow sections) (zebrafish [2]) |
| --- | --- | --- |
| CCO [alcohol] | as the alcohol concentration increases, the number of zebrafish that can distinguish colors decreases |  |
| Nc1c2c(nc3ccccc13)CCCC2 [tacrine, 1,2,3,4-tetrahydro-9-acridine amine] |  | moved to yellow that is their avoided color |
